Results as given in ChEMBL document CHEMBL4138123, “Design, synthesis and biological evaluation of novel pyrazolochalcones as potential modulators of PI3K/Akt/mTOR pathway and inducers of apoptosis in breast cancer cells” (Eur J Med Chem, 2017).

Columns and labels:
Format in all cases: functional
SK-OV-3 = assay: Cytotoxicity against human SKOV3 cells assessed as cell growth at 0.01 uM after 48 hrs by sulforhodamine B assay relative to control; settings: SK-OV-3, 48 h, read-out: Activity
UO-31 [1] = assay: Cytotoxicity against human UO31 cells assessed as growth inhibition after 48 hrs by sulforhodamine B assay; settings: UO-31, 48 h
HCC 2998 = assay: Cytotoxicity against human HCC2998 cells assessed as cell growth at 0.01 uM after 48 hrs by sulforhodamine B assay relative to control; settings: HCC 2998, 48 h, read-out: Activity
A498 = assay: Cytotoxicity against human A498 cells assessed as cell growth at 0.1 uM after 48 hrs by sulforhodamine B assay relative to control; settings: A498, 48 h, read-out: Activity
SF-539 = assay: Cytotoxicity against human SF539 cells assessed as cell growth at 0.01 uM after 48 hrs by sulforhodamine B assay relative to control; settings: SF-539, 48 h, read-out: Activity
M14 = assay: Cytotoxicity against human M14 cells assessed as cell growth at 10 uM after 48 hrs by sulforhodamine B assay relative to control; settings: M14, 48 h, read-out: Activity
IGROV-1 [2] = assay: Cytotoxicity against human IGROV1 cells assessed as cell growth at 100 uM after 48 hrs by sulforhodamine B assay relative to control; settings: IGROV-1, 48 h, read-out: Activity
HL-60(TB) = assay: Cytotoxicity against human HL-60(TB) cells assessed as cell growth at 0.1 uM after 48 hrs by sulforhodamine B assay relative to control; settings: HL-60, 48 h, read-out: Activity
Hs-578T = assay: Cytotoxicity against human Hs 578T cells assessed as growth inhibition after 48 hrs by sulforhodamine B assay
IGROV-1 [3] = assay: Cytotoxicity against human IGROV1 cells assessed as growth inhibition after 48 hrs by sulforhodamine B assay; settings: IGROV-1, 48 h
SNB-19 = assay: Cytotoxicity against human SNB19 cells assessed as cell growth at 10 uM after 48 hrs by sulforhodamine B assay relative to control; settings: SNB-19, 48 h, read-out: Activity
HOP-62 [4] = assay: Cytotoxicity against human HOP62 cells assessed as cell growth at 1 uM after 48 hrs by sulforhodamine B assay relative to control; settings: HOP-62, 48 h, read-out: Activity
A549 [5] = assay: Cytotoxicity against human A549/ATCC cells assessed as cell growth at 0.1 uM after 48 hrs by sulforhodamine B assay relative to control; settings: A549, 48 h, read-out: Activity
RPMI-8226 [6] = assay: Cytotoxicity against human RPMI8226 cells assessed as cell growth at 1 uM after 48 hrs by sulforhodamine B assay relative to control; settings: RPMI-8226, 48 h, read-out: Activity
NCI-H522 = assay: Cytotoxicity against human NCI-H522 cells assessed as cell growth at 1 uM after 48 hrs by sulforhodamine B assay relative to control; settings: NCI-H522, 48 h, read-out: Activity
RPMI-8226 [7] = assay: Cytotoxicity against human RPMI8226 cells assessed as cell growth at 10 uM after 48 hrs by sulforhodamine B assay relative to control; settings: RPMI-8226, 48 h, read-out: Activity
HCT-15 = assay: Cytotoxicity against human HCT15 cells assessed as cell growth at 0.01 uM after 48 hrs by sulforhodamine B assay relative to control; settings: HCT-15, 48 h, read-out: Activity
HOP-62 [8] = assay: Cytotoxicity against human HOP62 cells assessed as cell growth at 10 uM after 48 hrs by sulforhodamine B assay relative to control; settings: HOP-62, 48 h, read-out: Activity
NCI-H23 = assay: Cytotoxicity against human NCI-H23 cells assessed as cell growth at 1 uM after 48 hrs by sulforhodamine B assay relative to control; settings: NCI-H23, 48 h, read-out: Activity
KM12 = assay: Cytotoxicity against human KM12 cells assessed as cell growth at 0.1 uM after 48 hrs by sulforhodamine B assay relative to control; settings: KM12, 48 h, read-out: Activity
BT-549 = assay: Cytotoxicity against human BT549 cells assessed as cell growth at 0.01 uM after 48 hrs by sulforhodamine B assay relative to control; settings: BT-549, 48 h, read-out: Activity
HCT-116 = assay: Cytotoxicity against human HCT116 cells assessed as growth inhibition after 48 hrs by sulforhodamine B assay; settings: HCT-116, 48 h
T47D = assay: Cytotoxicity against human T47D cells assessed as cell growth at 100 uM after 48 hrs by sulforhodamine B assay relative to control; settings: read-out: Activity
SR = assay: Cytotoxicity against human SR cells assessed as growth inhibition after 48 hrs by sulforhodamine B assay; settings: for CC50: read-out: LC50 (the source's name)
MOLT-4 = assay: Cytotoxicity against human MOLT4 cells assessed as cell growth at 0.1 uM after 48 hrs by sulforhodamine B assay relative to control; settings: MOLT-4, 48 h, read-out: Activity
786-0 = assay: Cytotoxicity against human 786-0 cells assessed as cell growth at 100 uM after 48 hrs by sulforhodamine B assay relative to control; settings: 786-0, 48 h, read-out: Activity
NCI-H460 = assay: Cytotoxicity against human NCI-H460 cells assessed as cell growth at 10 uM after 48 hrs by sulforhodamine B assay relative to control; settings: NCI-H460, 48 h, read-out: Activity
NCI-H226 = assay: Cytotoxicity against human NCI-H226 cells assessed as cell growth at 0.1 uM after 48 hrs by sulforhodamine B assay relative to control; settings: NCI-H226, 48 h, read-out: Activity
SK-MEL-5 = assay: Cytotoxicity against human SK-MEL-5 cells assessed as cell growth at 10 uM after 48 hrs by sulforhodamine B assay relative to control; settings: SK-MEL-5, 48 h, read-out: Activity
SW-620 = assay: Cytotoxicity against human SW620 cells assessed as growth inhibition after 48 hrs by sulforhodamine B assay; settings: SW-620, 48 h
NCI-H322M = assay: Cytotoxicity against human NCI-H322M cells assessed as cell growth at 0.01 uM after 48 hrs by sulforhodamine B assay relative to control; settings: read-out: Activity
U-251 = assay: Cytotoxicity against human U251 cells assessed as cell growth at 0.1 uM after 48 hrs by sulforhodamine B assay relative to control; settings: U-251, 48 h, read-out: Activity
A549 [9] = assay: Cytotoxicity against human A549/ATCC cells assessed as cell growth at 0.01 uM after 48 hrs by sulforhodamine B assay relative to control; settings: A549, 48 h, read-out: Activity
Malme-3M = assay: Cytotoxicity against human MALME-3M cells assessed as cell growth at 10 uM after 48 hrs by sulforhodamine B assay relative to control; settings: read-out: Activity
UO-31 [10] = assay: Cytotoxicity against human UO31 cells assessed as cell growth at 0.01 uM after 48 hrs by sulforhodamine B assay relative to control; settings: UO-31, 48 h, read-out: Activity

COc1ccc(C(=O)/C=C/c2cc(-c3cc(OC)c(OC)c(OC)c3)n[nH]2)cc1
growth at 0.01 µM (SK-OV-3): 100%
LC50 (UO-31 [1]): 5.59 µM
TGI (UO-31 [1]): 2.84 µM
growth at 0.01 µM (HCC 2998): 101%
growth at 0.1 µM (A498): 87%
growth at 0.01 µM (SF-539): 97%
growth at 10 µM (M14): -44%
growth at 100 µM (IGROV-1 [2]): -29%
growth at 0.1 µM (HL-60(TB)): 108%
LC50 (Hs-578T): > 100 µM
TGI (Hs-578T): > 100 µM
LC50 (IGROV-1 [3]): > 100 µM
TGI (IGROV-1 [3]): 4.81 µM
growth at 10 µM (SNB-19): -85%
growth at 1 µM (HOP-62 [4]): 87%
growth at 0.1 µM (A549 [5]): 101%
growth at 1 µM (RPMI-8226 [6]): 27%
growth at 1 µM (NCI-H522): 75%
growth at 10 µM (RPMI-8226 [7]): -41%
growth at 0.01 µM (HCT-15): 99%
growth at 10 µM (HOP-62 [8]): -64%
growth at 1 µM (NCI-H23): 95%
growth at 0.1 µM (KM12): 94%
growth at 0.01 µM (BT-549): 97%
LC50 (HCT-116): > 100 µM
TGI (HCT-116): 5.86 µM
growth at 100 µM (T47D): -9%
TGI (SR): 23.9 µM
CC50 (SR): > 100 µM
growth at 0.1 µM (MOLT-4): 103%
growth at 100 µM (786-0): -48%
growth at 10 µM (NCI-H460): -63%
growth at 0.1 µM (NCI-H226): 102%
growth at 10 µM (SK-MEL-5): -89%
TGI (SW-620): 3.47 µM
growth at 0.01 µM (NCI-H322M): 92%
growth at 0.1 µM (U-251): 97%
growth at 0.01 µM (A549 [9]): 98%
growth at 10 µM (Malme-3M): -66%
growth at 0.01 µM (UO-31 [10]): 87%

COc1cc(-c2cc(/C=C/C(=O)c3ccc(Cl)c(Cl)c3)[nH]n2)cc(OC)c1OC
growth at 0.01 µM (SK-OV-3): 99%
LC50 (UO-31 [1]): > 100 µM
TGI (UO-31 [1]): > 100 µM
growth at 0.01 µM (HCC 2998): 96%
growth at 0.1 µM (A498): 89%
growth at 0.01 µM (SF-539): 93%
growth at 10 µM (M14): 61%
growth at 100 µM (IGROV-1 [2]): 9%
growth at 0.1 µM (HL-60(TB)): 100%
LC50 (Hs-578T): > 100 µM
TGI (Hs-578T): > 100 µM
LC50 (IGROV-1 [3]): > 100 µM
TGI (IGROV-1 [3]): > 100 µM
growth at 10 µM (SNB-19): 50%
growth at 1 µM (HOP-62 [4]): 68%
growth at 0.1 µM (A549 [5]): 99%
growth at 1 µM (RPMI-8226 [6]): 33%
growth at 1 µM (NCI-H522): 67%
growth at 10 µM (RPMI-8226 [7]): -7%
growth at 0.01 µM (HCT-15): 69%
growth at 10 µM (HOP-62 [8]): -9%
growth at 1 µM (NCI-H23): 95%
growth at 0.1 µM (KM12): 93%
growth at 0.01 µM (BT-549): 89%
LC50 (HCT-116): > 100 µM
TGI (HCT-116): 21.5 µM
growth at 100 µM (T47D): -36%
TGI (SR): 13.5 µM
CC50 (SR): 96 µM
growth at 0.1 µM (MOLT-4): 102%
growth at 100 µM (786-0): -10%
growth at 10 µM (NCI-H460): 31%
growth at 0.1 µM (NCI-H226): 103%
growth at 10 µM (SK-MEL-5): 62%
LC50 (lethal concentration, 50% net cell kill) (SW-620): > 100 µM
TGI (SW-620): 79.6 µM
growth at 0.01 µM (NCI-H322M): 89%
growth at 0.1 µM (U-251): 95%
growth at 0.01 µM (A549 [9]): 101%
growth at 10 µM (Malme-3M): 72%
growth at 0.01 µM (UO-31 [10]): 85%

COc1cc(-c2cc(/C=C/C(=O)c3ccc(F)c(F)c3)[nH]n2)cc(OC)c1OC
growth at 0.01 µM (SK-OV-3): 98%
LC50 (UO-31 [1]): > 100 µM
TGI (UO-31 [1]): 14.2 µM
growth at 0.01 µM (HCC 2998): 83%
growth at 0.1 µM (A498): 96%
growth at 0.01 µM (SF-539): 100%
growth at 10 µM (M14): 3%
growth at 100 µM (IGROV-1 [2]): -1%
growth at 0.1 µM (HL-60(TB)): 93%
LC50 (Hs-578T): > 100 µM
TGI (Hs-578T): 36.8 µM
LC50 (IGROV-1 [3]): > 100 µM
TGI (IGROV-1 [3]): 87 µM
growth at 10 µM (SNB-19): 25%
growth at 1 µM (HOP-62 [4]): 94%
growth at 0.1 µM (A549 [5]): 98%
growth at 1 µM (RPMI-8226 [6]): 73%
growth at 1 µM (NCI-H522): 71%
growth at 10 µM (RPMI-8226 [7]): -21%
growth at 0.01 µM (HCT-15): 97%
growth at 10 µM (HOP-62 [8]): 25%
growth at 1 µM (NCI-H23): 90%
growth at 0.1 µM (KM12): 92%
growth at 0.01 µM (BT-549): 101%
LC50 (HCT-116): 94.2 µM
TGI (HCT-116): 13.9 µM
growth at 100 µM (T47D): -11%
TGI (SR): > 100 µM
CC50 (SR): > 100 µM
growth at 0.1 µM (MOLT-4): 106%
growth at 100 µM (786-0): -47%
growth at 10 µM (NCI-H460): -9%
growth at 0.1 µM (NCI-H226): 97%
growth at 10 µM (SK-MEL-5): -21%
LC50 (lethal concentration, 50% net cell kill) (SW-620): > 100 µM
TGI (SW-620): > 100 µM
growth at 0.01 µM (NCI-H322M): 94%
growth at 0.1 µM (U-251): 96%
growth at 0.01 µM (A549 [9]): 101%
growth at 10 µM (Malme-3M): -3%
growth at 0.01 µM (UO-31 [10]): 90%
